Experimental findings from patent US6277847A, “Herbicidal isoindolinonyl-and 3,4-dihydroisoquinolonyl-substituted heterocycles” (FMC Corporation, priority 2000, dated 2001) are described below.

Structures are written as SMILES.

What all share (format): in vivo
Test [1] has as its system Johnsongrass (Sorghum halepense). The test is described as follows: post-emergence herbicidal activity, johnsongrass. Conditions: 1 Kg/Ha, about fourteen days, read-out: post-emergence herbicidal activity (% control) SORHA. How it is done:
(§1) This example sets forth the methods of herbicidal testing conducted on the specific compounds set forth below. Specifically, the compounds referenced below were tested for pre- and post-emergence herbicidal activity using a variety of crops and weeds. The test plants include, but are not limited to, soybean (Glycine max -- var. Winchester), field corn (Zea mays var. Pioneer 3732), wheat (Triticum aestivum var. Lew), morningglory (Ipomea lacunosa or Ipomea hederacea), velvetleaf (Abutilon theophrasti), green foxtail (Setaria viridis), Johnsongrass (Sorghum halepense), blackgrass (Aloepecurus myosuroides), common chickweed (Stellaria media), and common cocklebur (Xanthium strumarium L.).
(§2) In the post-emergence test, seeds of the plant species named above were planted in flats containing the appropriate soil mixture where they were maintained to allow the seeds to germinate. When the plants in these flats reached the proper stage of growth, flats for the pre-emergence tests were planted in a like manner. The flats containing the post-emergence and pre-emergence test plant species were then sprayed with an appropriately concentrated water/acetone solution of test compound. Once treated the flats were maintained, along with untreated controls, for about fourteen days. All treated plants were then examined for phytotoxicity, which was expressed as percent control where 0 is no effect and 100 is complete control. Effective rates of application for the compounds of the present invention range from 0.001 to 3 kg/ha, more likely from […] to 1 Kg/ha.
(§3) Herbicidal activity data at selected application rates are in Tables 4 and 5. The test compounds are identified by numbers correspond to those in Table 1.
(§4) SOY is soybean, WHT is wheat, CRN is corn, ABUTH is velvetleaf, IPOSS is
(§5) morningglory, STEME is chickweed, XANPE is cocklebur, ALOMY is blackgrass,
(§6) Rate of application of test compound is 1 Kg/Ha. The definitions as shown under Table 4 apply to Table 5.

Test [2] concerns green foxtail (Setaria viridis). The test is described as follows: pre-emergence herbicidal activity, green foxtail. Conditions: 1 kg/Ha, about fourteen days, read-out: pre-emergence herbicidal activity (% control) SETVI. As for the experimental part: as §1, §2, §3
(§7) Rate of application of test compound is 1 kg/Ha
as §4
(§8) morningglory, STEME is chickweed, XANPE is cocklebur, ALOMY is blackgrass, […]

The subject of test [3] is soybean (Glycine max -- var. Winchester). Description: post-emergence herbicidal activity, soybean. The settings on record: 1 Kg/Ha, about fourteen days, read-out: post-emergence herbicidal activity (% control) SOY. As for the experimental part: as §1, §2, §3, §4, §5, §6
In test [4] the test system is Johnsongrass (Sorghum halepense). Description: pre-emergence herbicidal activity, johnsongrass. Conditions: 1 kg/Ha, about fourteen days, read-out: pre-emergence herbicidal activity (% control) SORHA. How it is done:
as §1, §2, §3, §7, §4, §8

For test [5], the system named is blackgrass (Aloepecurus myosuroides). The test is described as follows: pre-emergence herbicidal activity, blackgrass. Conditions: Alopecurus myosuroides, 1 kg/Ha, about fourteen days, read-out: pre-emergence herbicidal activity (% control) ALOMY. As for the experimental part: as §1, §2, §3, §7, §4, §8
Test [6] deals with velvetleaf (Abutilon theophrasti). Description: pre-emergence herbicidal activity, velvetleaf. Conditions: 1 kg/Ha, about fourteen days, read-out: pre-emergence herbicidal activity (% control) ABUTH. As for the experimental part:
as §1, §2, §3, §7, §4, §8

The test system of test [7] is common cocklebur (Xanthium strumarium L.). The test is described as follows: pre-emergence herbicidal activity, cocklebur. The settings on record: 1 kg/Ha, about fourteen days, read-out: pre-emergence herbicidal activity (% control) XANPE. How it is done: as §1, §2, §3, §7, §4, §8
Test [8] deals with green foxtail (Setaria viridis). Description: post-emergence herbicidal activity, green foxtail. Conditions: 1 Kg/Ha, about fourteen days, read-out: post-emergence herbicidal activity (% control) SETVI. How it is done:
as §1, §2, §3, §4, §5, §6

Test [9] deals with wheat (Triticum aestivum var. Lew). Description: pre-emergence herbicidal activity, wheat. Conditions: 1 kg/Ha, about fourteen days, read-out: pre-emergence herbicidal activity (% control) WHT. As for the experimental part:
as §1, §2, §3, §7, §4, §8

Test [10] deals with soybean (Glycine max -- var. Winchester). Description: pre-emergence herbicidal activity, soybean. The settings on record: 1 kg/Ha, about fourteen days, read-out: pre-emergence herbicidal activity (% control) SOY. As for the experimental part: as §1, §2, §3, §7, §4, §8
Test [11] has as its system common cocklebur (Xanthium strumarium L.). Description: post-emergence herbicidal activity, cocklebur. The settings on record: 1 Kg/Ha, about fourteen days, read-out: post-emergence herbicidal activity (% control) XANPE. How it is done:
as §1, §2, §3, §4, §5, §6

In test [12] the test system is wheat (Triticum aestivum var. Lew). Description: post-emergence herbicidal activity, wheat. Conditions: 1 Kg/Ha, about fourteen days, read-out: post-emergence herbicidal activity (% control) WHT. As for the experimental part:
as §1, §2, §3, §4, §5, §6

The test system of test [13] is velvetleaf (Abutilon theophrasti). Description: post-emergence herbicidal activity, velvetleaf. The settings on record: 1 Kg/Ha, about fourteen days, read-out: post-emergence herbicidal activity (% control) ABUTH. How it is done:
as §1, §2, §3, §4, §5, §6

Test [14] has as its system field corn (Zea mays var. Pioneer 3732). The test is described as follows: pre-emergence herbicidal activity, corn. Conditions: 1 kg/Ha, about fourteen days, read-out: pre-emergence herbicidal activity (% control) CRN. As for the experimental part: as §1, §2, §3, §7, §4, §8
Test [15] relates to common chickweed (Stellaria media). Description: pre-emergence herbicidal activity, chickweed. The settings on record: 1 kg/Ha, about fourteen days, read-out: pre-emergence herbicidal activity (% control) STEME. How it is done:
as §1, §2, §3, §7, §4, §8

The subject of test [16] is field corn (Zea mays var. Pioneer 3732). Description: post-emergence herbicidal activity, corn. The settings on record: 1 Kg/Ha, about fourteen days, read-out: post-emergence herbicidal activity (% control) CRN. As for the experimental part:
as §1, §2, §3, §4, §5, §6

In test [17] the test system is morningglory (Ipomea lacunosa or Ipomea hederacea). Description: post-emergence herbicidal activity, morningglory. The settings on record: Ipomoea, 1 Kg/Ha, about fourteen days, read-out: post-emergence herbicidal activity (% control) IPOSS. As for the experimental part: as §1, §2, §3, §4, §5, §6
Test [18] has the same test system. The test is described as follows: pre-emergence herbicidal activity, morningglory. Conditions: Ipomoea, 1 kg/Ha, about fourteen days, read-out: pre-emergence herbicidal activity (% control) IPOSS. How it is done:
as §1, §2, §3, §7, §4, §8

Take `CN1Cc2c(-n3c(=O)cc(C(F)(F)F)n(C)c3=O)ccc(Cl)c2C1=O` [Compound 9]: the activity at 1000 g/ha was 50% in test [1]; 100% in [2]; 100% in test [3]; 100% in test [4]; 100% in test [5]; 100% in test [6]. For the same molecule, the activity at 1000 g/ha in test [7] turned out to be 100%; in [8], 70%; in test [9], 100%; in test [10], 100%; in [11], 70%; in test [12] it was 50%. Also, the activity at 1000 g/ha was 100% in test [13]; 100% in test [14]; 100% in [15]; 50% in [16]; 90% in [17]; 100% in test [18].
As for `Cn1c(C(F)(F)F)cc(=O)n(-c2ccc(Cl)c3c2CN(C(C)(C)C)C3=O)c1=O` [Compound 14, 3-[7-chloro-2-(1,1-dimethylethyl)isoindolin-1-on-4-yl]-1-methyl-6-trifluoromethyl-2,4(1H,3H)-pyrimidinedione], the activity at 1000 g/ha in test [1], in test [2], in test [3], in test [4], in test [5] and in test [6] was 100% in each case. Further, the activity at 1000 g/ha in test [7], in test [8], in test [9], in test [10], in test [11] and in test [12] was 100% each time. For the same molecule, the activity at 1000 g/ha in test [13] is 100%; in [14], 100%; in [15], 100%; in test [16], 80%; in [17], 90%; in test [18], 100%.
As for `Cn1c(C(F)(F)F)cc(=O)n(-c2c(Cl)cc(Cl)c3c2CN(O)C3=O)c1=O` [Compound 16], the activity at 1000 g/ha in [1] turned out to be 30%; in test [2], 100%; in test [3], 60%; in test [4], 100%; in test [5], 60%; in test [6] it was 100%. In addition, the activity at 1000 g/ha in test [7] is 80%; in test [8], 30%; in test [9] it was 70%; in test [10] it was 50%; in test [11] it was 30%; in test [12], 20%. For the same molecule, the activity at 1000 g/ha in [13] amounted to 50%; in test [14] it was 90%; in test [15], 5%; in test [16], 40%; in test [17], 20%; in test [18], 65%.
On to `C#CCN1Cc2c(-n3c(=O)cc(C(F)(F)F)n(C)c3=O)ccc(Cl)c2C1=O` [Compound 8], for which the activity at 1000 g/ha in test [1], in test [2], in test [3], in [4], in test [5] and in test [6] was 100% throughout. Moreover, the activity at 1000 g/ha in [7], in test [8], in test [9], in [10], in [11] and in test [12] was 100% throughout. For the same molecule, the activity at 1000 g/ha in test [13], in test [14], in [15], in [16], in test [17] and in test [18] was 100% in each case.
On to `CCCCN1Cc2c(-n3c(=O)cc(C(F)(F)F)n(C)c3=O)ccc(Cl)c2C1=O` [Compound 11], for which the activity at 1000 g/ha in test [1] amounted to 90%; in [2], 100%; in test [3], 95%; in [4], 100%; in test [5], 100%; in test [6], 100%. The activity at 1000 g/ha in [7], in [8], in [9], in test [10], in test [11] and in [12] was 100% in each case. In addition, the activity at 1000 g/ha in [13] worked out at 100%; in [14] it was 100%; in [15] it was 100%; in [16], 80%; in test [17] it was 95%; in [18], 100%.
For `Cn1c(C(F)(F)F)cc(=O)n(-c2ccc(Cl)c3c2CN(O)C3=O)c1=O` [Compound 18], the activity at 1000 g/ha amounted to 65% in test [1]; 100% in test [2]; 80% in [3]; 100% in [4]; 100% in test [6]; 100% in [7]. Further, the activity at 1000 g/ha in [8] turned out to be 70%; in test [9], 60%; in test [10], 95%; in test [11], 95%; in [12], 50%; in [13], 100%. The activity at 1000 g/ha is 100% in test [14], 70% in test [16], 100% in test [17] and 100% in test [18].
On to `C=CCON1Cc2c(-n3c(=O)cc(C(F)(F)F)n(C)c3=O)ccc(Cl)c2C1=O` [Compound 17], for which the activity at 1000 g/ha in test [1], in test [2], in test [3], in test [4], in [6] and in test [7] was 100% each time. For the same molecule, the activity at 1000 g/ha in test [8], in test [9], in test [10], in test [11], in test [12] and in test [13] was 100% throughout. The activity at 1000 g/ha is 100% in test [14]; 100% in test [15]; 90% in [16]; 90% in test [17]; 100% in [18].
